From US12303498B2, “ALK5 inhibitors as skeletal muscle hypertrophy inducers” (CYTOO, priority 2018, dated 2025) come the findings set out here.

As a reminder, the EC50 is the concentration that produces a half-maximal response.

The subject of assay [1] is Human primary myoblasts (healthy donors 3, 1 and 5). In words: MyoScreen hypertrophy assay on myotubes from healthy donors. The assay is classed as cell-based. To be noted: for EC50: Homo sapiens, Myoblast, read-out: EC50; for EC50 / % Activity: second dose response assay. The procedure:
(§1) Healthy donor primary skeletal cells (Donor 1, Donor 3 and Donor 5) were Clonetics™ Human Skeletal Muscle Myoblasts (HSMM). In addition, cells from three DMD (Duchenne muscular dystrophy) donors (Donor Z, W and D1) and from a healthy donor (Donor A) were sourced.
(§2) Hypertrophy and Atrophy Rescue assays were performed using an in vitro fully automated human myotube model called MyoScreen™ (Cytoo, France). This model relies on a tight control of the microenvironment that guides the differentiation of human primary myoblasts. Myotubes formed on MyoScreen™ micropatterns present a high level of maturation together with a highly standardized morphology.
(§3) Human primary myoblasts from donors were seeded in MyoScreen™ micropatterned 96-well plates (Cytoo, France), let them adhere for 24 h in growth medium, then run the differentiation in a low horse serum medium for at least 5 days.
(§4) At Day 0, MyoScreen™ plates (Cytoo, France) containing micropatterns were pre-filled with 200 μl/well of growth medium and stored in the incubator at 37° C. Human primary myoblasts were detached from the flasks, count, and seeded into the plates with 15 000 cells per well in 100 μl of growth medium.
(§5) At Day 1, the growth medium was changed for a differentiation medium, 300 μl/well (DMEM with 0.1% horse serum) in which myoblasts started differentiating and forming myotubes.
(§6) At Day 2, the differentiation medium was changed. Then candidate compounds were diluted with differentiation medium and transferred into the plate. The final concentration of DMSO should be not higher than 0.1%. At least 6 wells were treated with the vehicle as a basal control, and 6 wells were treated with IGF-1 at 100 ng/ml as positive hypertrophy control.
(§7) At Day 6, cells were fixed with formalin 5% for 30 min at room temperature, then permeabilized with Triton X-100 at 0.1% in PBS for 15 min, and blocked with PBS+BSA 1% for 20 minutes. Myotubes were incubated with first antibody against Troponin T in blocking buffer for 1 h30, washed three times with PBS, incubated with secondary antibody and Hoescht ( 1/10000) for 1 h30, and washed three times with PBS.
(§8) Images were acquired at 10× magnification with an Operetta High Content Imaging System. Image processing and analysis were performed with dedicated algorithms developed on the Acapella High Content Imaging Software (Perkin Elmer) by CYTOO. Eleven fields per well were acquired.
First, segmentation of myotubes and nuclei were done using respectively the Troponin T staining intensity and the Hoechst staining. […] The threshold of segmentation was set-up in order to avoid detecting the background noise and eliminate aberrant small myotube structures.
(§9) Then, an image clean-up step was performed on the Troponin T images in order to remove myotubes that touch the border of the image. The final valid myotubes were used to extract myotube morphology parameters including the myotube width and area, and the number of nuclei per myotube.
Nuclei Count, Fusion Index, Mean myotube Area and Number of nuclei per myotube have been validated as relevant and sensitive readouts of myotube differentiation as well as atrophic and hypertrophic induction.
A primary screening was run to identify hypertrophy compounds that increase the myotube differentiation and size. Candidate compounds were tested at 10 μM in monoplicate on Donor 3 cells.
A retest was run, by cherry picking (same compound batch as primary screening): each hit was tested in the same conditions as in the Primary Screening (Donor 3, 10 μM) in six well replicates.

For assay [2], the system named is cells from DMD donors (Donor Z, W and D1). In words: MyoScreen hypertrophy assay on myotubes from DMD donors. The assay is classed as cell-based, human. To be noted: fusion index (compound)*100/basal control; for Donor W (% Activity): DMD Donor W; for Donor Z (% Activity): DMD Donor Z. The procedure:
as §1, §2, §3, §4, §5, §6, §7, §8
(§10) First, segmentation of myotubes and nuclei were done using respectively the Troponin T staining intensity and the Hoechst staining. One to two myotubes per micropattern were usually identified (a myotube is a troponin T staining area that includes at least 2 nuclei). The threshold of segmentation was set-up in order to avoid detecting the background noise and eliminate aberrant small myotube structures. At the end of this first step, specific readouts were calculated in the whole well, like the nuclei count and the fusion index (percentage of nuclei included in troponin T staining) Usually around 50 to 60 myotubes were detected per well in a control condition.
as §9

In assay [3] the test system is Donor Z (DMD donor) myotubes. In words: Hypertrophy assay, combinations ALK5 inhibitor and glucocorticoid. To be noted: 4 days of treatment, prednisolone 10 nM, RepSox or GW788388 300 nM, alone or combined. The assay is classed as cell-based, human.
In assay [4] the test system is myotubes stimulated with 100 μM ACh. Kind of assay: Contractile activity assay. It counts as cell-based, human. The conditions noted are these: 5 days of differentiation including 4 days (96 h) treatment, RepSox 2 μM. The procedure:
Cells were washed with calcium buffer as above. Myotube contraction was induced by addition of 100 μM ACh for 3 mins after which myotubes were fixed and immunostained with troponin T antibody. Automated acquisition was performed on the Operetta platform with a x10/0.3 NA objective. Detaching myotubes were automatically detected and quantified using Acapella, based on the detection of high intensity regions within the edges of segmented myotubes that mark the spots where the myotubes detached.

For assay [5], the system named is Myotubes from the healthy donor 3 atrophied by TNF-α, IL-1β, Myostatin, TGF-β or dexamethasone. In words: Atrophy rescue assay (MyoScreen). Further details: key: +++: total rescue; ++: partial rescue; +: low rescue. It counts as cell-based, human. The procedure:
as §2, §3, §4, §5, §6
For Atrophy Rescue assay, one hour after candidate compound addition, atrophy inducers were added at the following final concentration: 150 ng/mL of myostatin, 25 ng/mL of IL-1β, 2 ng/mL of TNF-α, 0.5 ng/mL of TGF-β and 100 μM of dexamethasone.
as §7, §8, §10, §9
Atrophy Rescue assays were performed in triplicate in the presence of atrophy inducers, i.e. TNF-α, IL-1β, Myostatin, TGF-β and dexamethasone.
Atrophy rescue assays was performed for RepSox. Myotubes from the healthy donor 3 were atrophied using different inducers: TNF-α, IL-1β, Myostatin, TGF-β and dexamethasone.

Assay [6] concerns ACh-stimulated myotubes. In words: Calcium flux assay after ACh stimulation. It counts as cell-based, human. To be noted: 20 μM ACh stimulation; myotubes differentiated 8 days, 7 days with compound. The procedure:
Cells were then incubated for 1 h with 2 μM Fluo-4 AM (F14201-Invitrogen) in an incubator (37° C., 5% CO2). After washing to remove unloaded dye, myotube responses to 20 μM ACh (A6625-Sigma-Aldrich), were videoimaged. Stream acquisitions were set at 1 sec intervals and one field of view was acquired per well. Images were processed and analyzed automatically using a dedicated software developed in-house integrating the open-source ImageJ framework. The image analysis tool segments the myotubes in images acquired in the same well. The Fluo-4 total fluorescence intensity was measured inside each myotube and corrected for background. The total intensity was normalized to the myotube area to obtain the mean fluorescence intensity readout.
In general terms: Calcium flux is commonly read through the fluorescence of an indicator in the cells.

Assay [7] deals with AChR clusters in MyoScreen myotubes. Kind of assay: Acetylcholine receptor clustering assay. The conditions noted are these: 8 days of differentiation including 7 days of drug treatment; vs control myotubes. It counts as cell-based, human. The procedure: The MyoScreen™ protocol was performed as described in the Hypertrophy and Atrophy rescue assay described in Example 1 but was stopped at Day 9 instead of Day 6. At the end of the assay, AchR were immunostained using a specific antibody in addition to Troponin T and nuclei. Images were acquired at ×20 with an Operetta High Content Imaging System from Perkin Elmer. Image processing and analyses were performed with a dedicated algorithm developed on the Acapella High Content Imaging Software (Perkin Elmer). Specific readouts were calculated in each well: nuclei count and myotube fusion index, number of AchR, AchR mean area, AchR total area normalized by the myotube total area.
Remarkably, when labeled with a specific anti-AChR antibody, MyoScreen myotubes at 6 days post-differentiation display AChR clusters punctuated along the sarcolemma membrane in the middle of the myotube fibre and in distinct regions at the ends of myotubes. To develop an automated AChR cluster assay, an AChR detection routine was developed that was sensitive and robust enough to analyze aggregate number and size clusters in images using the Operetta/Acapella system.

Regarding `O=C(NC1CCOCC1)c1ccc(-c2cc(-c3c[nH]nc3-c3ccccn3)ccn2)cc1` [GW 788388], in assay [1] (healthy Donor 3), the EC50 stood at 0.088 µM and the “% Activity” value came out at 130%. Besides, in assay [2], the “Donor W (% Activity)” value turned out to be 118% and the “Donor Z (% Activity)” value amounted to 196%.

Consider `Cc1cccc(-c2nn(C(=S)Nc3ccccc3)cc2-c2ccnc3ccccc23)n1` [A 83-01], for which, in assay [1] (healthy Donor 3), the EC50 stood at 0.01 µM and the “% Activity” value worked out at 127%.

As for `C[C@]12C=CC(=O)C=C1CC[C@@H]1[C@@H]2[C@@H](O)C[C@@]2(C)[C@H]1CC[C@]2(O)C(=O)CO` [Prednisolone, prednisolone], in assay [3], the “increase in Fusion index” value amounted to 25% and the “increase in Myotube mean area” value was “does not enhance significantly”.

As for `c1ccc(-c2n[nH]cc2-c2ccnc3ccccc23)nc1` [LY 364947], in assay [1] (healthy Donor 3), the EC50 came to 0.025 µM.

Turning to `Cc1cccc(-c2nc(C(C)(C)C)[nH]c2-c2ccc3nccnc3c2)n1` [SB 525334], in assay [1] (healthy Donor 3), the EC50 was found to be 0.003 µM and the “% Activity” value is 142%.

As to “IGF-1: IGF-1 at 100 ng/ml as positive hypertrophy control”, the “active contractile force (percentage of myotubes that exhibit strong contractions)” value in assay [4] was found to be 67±5%. In addition, the “Donor 1 % Activity” value in assay [1] (first dose response assay, healthy Donor 1) came out at 150%. The “Donor 3 % Activity” value in assay [1] (first dose response assay, healthy Donor 3) is reported as 178%. For the same molecule, the “Donor 5 % Activity” value in assay [1] (first dose response assay, healthy Donor 5) came to 185%. In addition, the “Primary screening (% Activity)” value in assay [1] (healthy Donor 3, 10 μM, monoplicate (IGF-1 100 ng/ml), % Activity = Myotube fusion index (compound)*100/Myotube Fusion index (basal control)) was found to be 210%. For the same molecule, the “Retest (% Activity)” value in assay [1] (healthy Donor 3, 10 μM, six well replicates (IGF-1 100 ng/ml), fusion index vs basal control) was 190%. In addition, the “% Activity” value in assay [1] (healthy Donor 3) was determined as 178%. Moreover, the “atrophy rescue, IL-1” value in assay [5] (atrophy inducer IL-1β 25 ng/mL) was “+++”. For the same molecule, the “atrophy rescue, TGF-β” value in assay [5] (atrophy inducer TGF-β 0.5 ng/mL) is recorded as “++”. Further, the “atrophy rescue, TNF-alpha” value in assay [5] (atrophy inducer TNF-α 2 ng/mL) was “+++”. In addition, the “atrophy rescue, dexamethasone” value in assay [5] (atrophy inducer dexamethasone 100 μM) is listed as “+++”. Moreover, the “atrophy rescue, Myostatin” value in assay [5] (atrophy inducer myostatin 150 ng/mL) is given as “+++”. Further, the “Donor D1 (% Activity)” value in assay [2] (DMD Donor D1) turned out to be 163%. Further, in assay [2], the “Donor W (% Activity)” value was 100% and the “Donor Z (% Activity)” value stood at 143%. Further, in assay [6], the “increase in [Ca2+]i peak amplitude compared to control myotubes” value was “no effect”. In assay [3], the “increase in Fusion index” value was determined as 160% and the “increase in Myotube mean area” value was determined as 54%. Besides, the “total AChR area increase” value in assay [7] is recorded as “no effect”.

In the case of `Cc1cccc(-c2[nH]c(C(C)(C)C)nc2-c2ccc3c(c2)OCO3)n1` [SB 505124], in assay [1] (healthy Donor 3), the EC50 is less than 0.001 µM and the “% Activity” value is 136%.

As to `Fc1ccc(Cl)cc1-c1nc(Nc2ccncc2)c2nccnc2n1` [SD208], in assay [1] (healthy Donor 3), the concentration giving a half-maximal response (EC50) stood at 0.065 µM and the “% Activity” value stood at 138%.

As for `NC(=O)c1ccc(-c2nc(-c3ccccn3)c(-c3ccc4c(c3)OCCO4)[nH]2)cc1` [D 4476], in assay [1] (healthy Donor 3), the half-maximal effective concentration (EC50) is less than 0.001 µM and the “% Activity” value is listed as 128%.

In the case of `Cc1cccc(-c2n[nH]cc2-c2ccc(F)c(-c3cnn(CCO)c3)c2)n1` [R268712], in assay [1] (healthy Donor 3), the concentration for a half-maximal effect (EC50) stood at 0.001 µM and the “% Activity” value is given as 132%.
